“Also recorded” adds a separate entry of the source.
What was measured:
[1] = system: ovariectomized female mice; assay: Ovariectomized female mouse model of obesity and diabetes; format: in vivo; settings: OVX females
From the text: (§1) For females, an ovariectomized female mouse model, with ovary-intact control animals, fed a regular chow diet, was employed. Loss of the ovaries results in the loss of endogenous estrogenic protection towards metabolic pathophysiology and weight gain, resulting in increased overall weight gain, abdominal adiposity and ensuing metabolic (including glucose and lipid) dysfunction in ovariectomized mice compared to ovary-intact control animals. For males, the model employed involves diet-induced obesity. In the absence of the estrogenic protection as in female mice, male mice fed a high fat chow gain weight and suffer from metabolic pathophysiology compared to mice on normal chow. […].
(§2) For measurement of food intake, activity and energy expenditure, mice were placed in metabolic cages. All measurements were obtained using a computer-controlled indirect calorimetry system. Prior to data collection, mice were acclimatized in the chambers for 24 hours, after which data was collected for the subsequent 48 hours, including two complete light cycles (14 h) and two complete dark cycles (10 h). Oxygen consumption (VO2), carbon dioxide production (VCO2), activity and food consumption were measured for 48 hours. The animals had ad libitum access to standard rodent chow or high fat chow and water during the study. To detect ambulatory activity and position, beam breaks in all the three planes, X, Y and Z directions, were utilized to obtain total activity. To calculate oxygen consumption (VO2) and carbon dioxide production (VCO2) were assessed by measuring the gas concentrations at the inlet and outlet of the sealed chambers.
(§3) Post euthanasia, tissues (epididymal/perirenal fat, liver) were dissected and weighed. Tibia length was measured after clearing of soft tissue. For H&E staining, at sacrifice, tissues were fixed in buffered formalin for 24 hours and subsequently embedded in paraffin. Tissue sections (5 μm-thick) were stained with Hematoxylin and Eosin.
(§4) Prior to GTT and ITT, mice were fasted for 4 hours and basal glucose (0 min) was measured. Subsequently, mice were intraperitoneally injected with glucose (2 g/kg body weight) or insulin (0.5 U/kg body weight). After the injection, blood glucose was monitored at regular time intervals (15, 30, 60 and 120 min after injection) from tail nicks. Additionally, for measuring the fasting insulin, blood was collected from the tail nicks at 0 time point and plasma was separated and used for measuring the fasting insulin using a mouse Insulin ELISA kit. Blood glucose was monitored using a glucose meter.
(§5) Total RNA was extracted from frozen tissues (˜100 mg) or cultured cells using the RNeasy Mini Kit. Isolated RNA (˜100 ng) was used for cDNA synthesis using the ImProm-II™ Reverse Transcription System in a final reaction volume of 20 μL in a denaturation and extension cycle. Subsequently, quantitative real time PCR was carried out in a 7500 Fast Real-Time PCR System. Gene expression was normalized to 18S RNA as an internal reference and fold change over the control was calculated using the ddCt method. Quantitative real-time PCR analyses were performed in triplicate from a minimum of 5 separate animals.

high fat diet male mice = assay: Diet induced obesity (high fat diet) male mouse model; format: in vivo; settings: HFD males
From the text: as §1, §2, §3, §4

3T3-L1 cells = assay: Lipid accumulation in 3T3-L1 adipocytes (Oil Red O staining); format: cell-based, mouse; settings: 3T3-L1 murine adipocytes, G-1 during differentiation
Description: (§6) Mouse fibroblasts, NIH 3T3-L1 cells were grown in DMEM with 10% FBS and subcultured before reaching 70% confluence. For differentiation, cells were seeded in 24 well plates or 60 mm dishes and allowed to grow till confluent. Subsequently medium was changed and cells were kept for additional two days before adding the differentiation cocktail in the medium (0.5 mM isomethylbutylxanthine, 1 μM dexamethasone and 10 μg/mL insulin) for 3 days (with or without GPER selective agonist G-1). The medium was then changed to the regular DMEM with FBS as above.
(§7) Eight days after differentiation, adipocytes are briefly rinsed with PBS and fixed in 4% PFA for 30-60 min and washed with PBS. Freshly prepared Oil Red-O working solution was added to cells and incubated for ˜60 min at room temperature, washed t 3 times with PBS and air dried. Images were acquired or lipids extracted with isopropanol and absorbance at 520 nm to quantitate the lipids measured.

human adipocytes = assay: Lipid accumulation in human adipocytes (Oil Red O staining); format: cell-based; settings: G-1 during differentiation
Description: (§8) For human adipocytic differentiation, human preadipocytes were purchased from Zen-Bio and differentiated with or without GPER-selective agonist G-1. Mouse myoblasts, C2C12 were grown in low glucose DMEM with 10% FBS and subcultured before reaching 70-80% confluence. For differentiation into myocytes, cells were seeded on 12-well plates and at confluence were switched to DMEM containing 2% horse serum. The medium was changed every other day and cells were used for glucose uptake assay between 6-8 days post differentiation.
as §7

PPARγ and ap2 = assay: Expression of adipogenic markers in 3T3-L1 cells; format: cell-based, mouse; settings: 3T3-L1 cells differentiated in the presence of G-1
Description: as §6, §5

C2C12 cells = assay: Glucose uptake in differentiated C2C12 myocytes; format: cell-based, mouse
Description: as §8
Differentiated C2C12 cells were washed twice with Krebs-Ringer phosphate buffer and incubated in serum free low glucose DMEM for 3 hours. Cells were then treated with 100 nM insulin for 15 min and subsequently incubated in Krebs-Ringer phosphate buffer containing […] of 2-deoxy-d-[^3H]glucose for 20 min. The reaction was terminated by adding ice-cold PBS on plates on ice. After three washes with PBS, the cells were dissolved in 0.1% sodium dodecyl sulfate and radioactivity was quantified by liquid scintillation counting. Nonspecific deoxyglucose uptake was measured in the presence of […] cytochalasin B and was subtracted from the total uptake to get specific glucose uptake.

[2] = system: AMP-activated protein kinase (AMPK); assay: AMPK activation in differentiated murine adipocytes; format: cell-based, mouse
Description: as §6
Tissues were homogenized in RIPA buffer supplemented with sodium fluoride (50 mM), sodium orthovanadate (1 mM), phenylmethylsulfonylfluoride (1 mM), and protease cocktail. Protein amounts were quantified by Bradford method and equal amounts (30 μg) of protein were loaded for all the samples on 4-20% SDS-PAGE gel. Proteins were then transferred to polyvinylidene fluoride membrane, blocked with 3% newborn calf serum in TBST before overnight incubation with primary antibodies. Subsequently, blots were incubated with secondary HRP-conjugated antibodies and developed using SuperSignal West Pico Chemiluminescent Substrate. Blots were then scanned and quantified using ImageJ software.

[3] = system: differentiated murine adipocytes; assay: Mitochondrial biogenesis in differentiated murine adipocytes; format: cell-based, mouse
Description: as §6

CC(=O)c1ccc2c(c1)C1C=CCC1C(c1cc3c(cc1Br)OCO3)N2 (centres unmarked) [G-1]
adipocyte size in perigonadal fat (H&E staining) [1]: smaller adipocytes
antioxidant markers in muscle and liver [1]: increases antioxidant markers
fasting glucose levels [1]: lower fasting glucose levels; also recorded: decreases fasting blood glucose
glucose tolerance (glucose tolerance test) [1]: improves glucose tolerance
insulin sensitivity (insulin tolerance test) [1]: enhances insulin sensitivity
total body weight ([1]; G-1 200 μg, 3 days per week, subcutaneously for 6 weeks vs vehicle): attenuates weight gain; also recorded: decrease in the total body weight
weights of perigonadal fat pads ([1]; after 6 week treatment): decreased weights of perigonadal fat pads; also recorded: lower
mRNA levels of pro-inflammatory, angiogenic and lipogenic markers in adipose tissue ([1]; gonadal fat, quantitative PCR): lower; also recorded: reduces inflammatory, angiogenic and lipogenic markers
energy expenditure (O2 consumption) ([1]; metabolic cages): increase in O2 consumption; also recorded: increased energy expenditure
pro-inflammatory and lipogenic markers in skeletal muscle and liver ([1]; quantitative PCR): decreased pro-inflammatory and lipogenic markers; also recorded: reduces lipogenic and inflammation
fasting glucose levels (high fat diet male mice): lower fasting glucose levels; also recorded: decreases fasting blood glucose
glucose tolerance (glucose tolerance test) (high fat diet male mice): improves glucose tolerance
insulin sensitivity (insulin tolerance test) (high fat diet male mice): improved insulin sensitivity; also recorded: enhances insulin sensitivity
total body weight (high fat diet male mice; G-1 200 μg, 5 days per week, subcutaneously for 8 weeks vs vehicle): attenuates weight gain; also recorded: decrease in the total body weight
liver weights (high fat diet male mice; after 8 week treatment): significant decrease in liver weights; also recorded: lower
perirenal adipose fat pad weights (high fat diet male mice; after 8 week treatment): significant decrease; also recorded: lower
energy expenditure (O2 consumption) (high fat diet male mice; metabolic cages): increase in O2 consumption; also recorded: increased energy expenditure
lipid accumulation (3T3-L1 cells): decreased lipid accumulation; also recorded: inhibits lipid accumulation
lipid accumulation (human adipocytes): decreased lipid accumulation; also recorded: inhibits lipid accumulation
expression of adipogenic markers PPARγ and ap2 (PPARγ and ap2): lower levels of adipogenic markers; also recorded: down regulates
cellular uptake of glucose (C2C12 cells): increased the cellular uptake of glucose; also recorded: increases glucose uptake
AMPK activation [2]: activated AMP-activated protein kinase (AMPK); also recorded: activates AMPK
mitochondrial biogenesis [3]: increased the mitochondrial biogenesis; also recorded: increases mitochondrial biogenesis

— patent US10682341B2, “Method for treating obesity, diabetes, cardiovascular and kidney diseases by regulating GPR30/GPER activity” (STC.UNM, priority 2015, dated 2020)
